Results on five compounds are retold here after patent US5516897A, “Monoazo reactive dyes and solutions thereof” (Zeneca Limited, priority 1992, dated 1996).

This data set is described as follows: solubility in water. It is filed as physicochemical. As to conditions: for solubility in water: temperature not stated. The text has this:
The concentrated solution was desalinated in a visking tubing placed in distilled water and the water replaced periodically until no further chloride ions could be detected using […] and the product precipitated by addition of ethanol to give 46 g of the title product (80% yield) having a lambda max at 417 nm and very high solubility in water.
The higher solubility of C1 compared with D1 and D2 means that more C1 can be prepared in a given vessel than for D1 or D2.

As to `CC(C)N(c1cccc(S(=O)(=O)O)c1)c1nc(Cl)nc(Nc2ccc(N=Nc3cc4c(S(=O)(=O)O)cc(S(=O)(=O)O)cc4cc3S(=O)(=O)O)c(NC(N)=O)c2)n1` [Example 3], the solubility in water entry is recorded as “high”.

Consider `CCN(c1nc(Cl)nc(Nc2ccc(N=Nc3cc4c(S(=O)(=O)O)cc(S(=O)(=O)O)cc4cc3S(=O)(=O)O)c(NC(N)=O)c2)n1)c1cc(S(=O)(=O)O)ccc1C` [Example 1], for which the solubility in water entry was “very high”.

Consider `CCN(c1nc(Nc2ccc(N=Nc3cc4c(S(=O)(=O)O)cc(S(=O)(=O)[O-])cc4cc3S(=O)(=O)O)c(NC(N)=O)c2)nc(-[n+]2ccc(C(=O)O)cc2)n1)c1cc(S(=O)(=O)O)ccc1C` [Example 2], for which the solubility in water result was “very high”.

Turning to `CC(C)N(c1ccc(S(=O)(=O)O)cc1)c1nc(Cl)nc(Nc2ccc(N=Nc3cc4c(S(=O)(=O)O)cc(S(=O)(=O)O)cc4cc3S(=O)(=O)O)c(NC(N)=O)c2)n1` [Example 4], for the setting “20° C.”, the “solubility in water at 20° C.” value was “very high”.

With `CCN(c1nc(Cl)nc(Nc2cc(NC(C)=O)c(N=Nc3cc(S(=O)(=O)O)c4cccc(S(=O)(=O)O)c4c3)cc2OC)n1)c1cc(S(=O)(=O)O)ccc1C` [Example 5], where the note is “25° C.”, the “solubility in water at 25° C.” value is recorded as “good”.
